Assay: Solubility of flame retardant in styrene
Type: physicochemical

O=C1C2C3CC(C(Br)C3Br)C2C(=O)N1CCN1C(=O)C2C3CC(C(Br)C3Br)C2C1=O (stereo not drawn) [BN-451, reference compound]
Solubility (at 25° C.): <0.1 wt %

O=C1NC(=O)C2CC(Br)C(Br)CC12 (stereo not drawn) [II]
Solubility (at 40° C.): >1 wt %

CN1C(=O)C2CC(Br)C(Br)CC2C1=O (stereo not drawn) [III]
Solubility (at 25° C.): >5 wt %

— US20080096990A1, “Flame Retardant Polystyrene Foam Compositions” (priority 2004, published 2008)
